Columns and labels:
Type in all cases: functional
PBMC [1] = test: Inhibition of LPS-induced IL1-beta production in human PBMC at 0.01 uM after 24 hrs by ELISA
PBMC [2] = test: Inhibition of LPS-induced IL1-beta production in human PBMC at 0.1 uM after 24 hrs by ELISA
PBMC [3] = test: Inhibition of LPS-induced IL1-beta production in human PBMC at 1.0 uM after 24 hrs by ELISA
PBMC [4] = test: Inhibition of LPS-induced IL1-beta production in human PBMC at 10 uM after 24 hrs by ELISA

## COC(=O)c1ccc([C@@H](O)[C@@H](C)O)cn1
PBMC [1]
  inhibition at 0.01 µM: 9.1%
PBMC [2]
  inhibition at 0.1 µM: 4.3%
PBMC [3]
  inhibition at 1 µM: 10.6%
PBMC [4]
  inhibition at 10 µM: -7.5%

## COC(=O)c1ccc([C@H](O)[C@H](C)O)cn1
PBMC [1]
  inhibition at 0.01 µM: -9.5%
PBMC [2]
  inhibition at 0.1 µM: 13.8%
PBMC [3]
  inhibition at 1 µM: 39.6%
PBMC [4]
  inhibition at 10 µM: 49.8%
